What was measured:
Test in all cases: relative viability (nuclei count vs DMSO), 5 days (fraction); higher = more cells survive
[1] = tested on: NCI-H838
Outline: (§1)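 Each reported value is a median over duplicate plates. It expresses relative viability: treated-well nuclei count divided by vehicle-well nuclei count. Lung cancer cell lines in 1536-well plates were dosed by pin tool a day after seeding, alone with one drug or with a fixed anchor-drug dose plus five library-drug doses (not always all listed) in √10 steps, and nuclei were counted after 5 days.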

[2] = tested on: NCI-H650
Outline: as §1

[3] = tested on: HCC-44
Outline: as §1

[4] = tested on: NCI-H358
Outline: as §1

[5] = tested on: LC-2-ad
Outline: as §1

[6] = tested on: NCI-H1355
Outline: as §1

[7] = tested on: NCI-H1915
Outline: as §1

[8] = tested on: HCC-15
Outline: as §1

[9] = tested on: NCI-H2347
Outline: as §1

[10] = tested on: ABC-1
Outline: as §1

[11] = tested on: LU99A
Outline: as §1

[12] = tested on: UMC-11
Outline: as §1

[13] = tested on: NCI-H2023
Outline: as §1

[14] = tested on: HOP-62
Outline: as §1

[15] = tested on: NCI-H2085
Outline: as §1

[16] = tested on: PC-14
Outline: as §1

[17] = tested on: NCI-H1651
Outline: as §1

[18] = tested on: COR-L23
Outline: as §1

[19] = tested on: NCI-H1993
Outline: as §1

[20] = tested on: SW 1573
Outline: as §1

[21] = tested on: NCI-H2126
Outline: as §1

[22] = tested on: HARA
Outline: as §1

[23] = tested on: EPLC-272H
Outline: as §1

Q: With `O=c1cc(N2CCOCC2)oc2c(-c3cccc4c3sc3ccccc34)cccc12` + C[C@@H](Oc1cc(-c2cnn(C3CCNCC3)c2)cnc1N)c1c(Cl)ccc(F)c1Cl [Crizotinib] (partner 1 µM) as the compound, how does the relative viability ([1]; first compound 0.01 µM) read?
A: 0.876

Q: What about the relative viability ([1]; first compound 0.03162 µM) of the same compound?
A: 0.77

Q: And the relative viability ([1]; first compound 0.1 µM)?
A: 0.849

Q: And the relative viability ([1]; first compound 0.3162 µM)?
A: 0.744

Q: And the relative viability ([1]; first compound 1 µM)?
A: 0.787

Q: And the relative viability ([2]; first compound 0.01 µM)?
A: 0.738

Q: What about the relative viability ([2]; first compound 0.03162 µM) of the same compound?
A: 0.82

Q: What about the relative viability ([2]; first compound 0.3162 µM) of the same compound?
A: 0.868

Q: What about the relative viability ([2]; first compound 1 µM) of the same compound?
A: 0.587

Q: What about the relative viability ([3]; first compound 0.01 µM) of the same compound?
A: 0.862

Q: And the relative viability ([3]; first compound 0.03162 µM)?
A: 0.811

Q: And the relative viability ([3]; first compound 0.1 µM)?
A: 0.814

Q: And the relative viability ([3]; first compound 0.3162 µM)?
A: 0.788

Q: And the relative viability ([3]; first compound 1 µM)?
A: 0.776

Q: And the relative viability ([4]; first compound 0.01 µM)?
A: 0.498

Q: And the relative viability ([4]; first compound 0.03162 µM)?
A: 0.546

Q: What about the relative viability ([4]; first compound 0.1 µM) of the same compound?
A: 0.794

Q: What about the relative viability ([4]; first compound 0.3162 µM) of the same compound?
A: 0.658

Q: And the relative viability ([4]; first compound 1 µM)?
A: 0.535

Q: What about the relative viability ([5]; first compound 0.01 µM) of the same compound?
A: 0.492

Q: What about the relative viability ([5]; first compound 0.03162 µM) of the same compound?
A: 0.427

Q: What about the relative viability ([5]; first compound 0.1 µM) of the same compound?
A: 0.487

Q: And the relative viability ([5]; first compound 0.3162 µM)?
A: 0.397

Q: And the relative viability ([5]; first compound 1 µM)?
A: 0.537

Q: What about the relative viability ([6]; first compound 0.01 µM) of the same compound?
A: 1.17

Q: What about the relative viability ([6]; first compound 0.03162 µM) of the same compound?
A: 1.12

Q: And the relative viability ([6]; first compound 0.3162 µM)?
A: 1.11

Q: What about the relative viability ([6]; first compound 1 µM) of the same compound?
A: 0.941

Q: What about the relative viability ([7]; first compound 0.01 µM) of the same compound?
A: 0.875

Q: And the relative viability ([7]; first compound 0.03162 µM)?
A: 0.879

Q: What about the relative viability ([7]; first compound 0.1 µM) of the same compound?
A: 0.939

Q: And the relative viability ([7]; first compound 0.3162 µM)?
A: 0.876

Q: What about the relative viability ([7]; first compound 1 µM) of the same compound?
A: 0.933

Q: And the relative viability ([8]; first compound 0.01 µM)?
A: 0.807

Q: And the relative viability ([8]; first compound 0.03162 µM)?
A: 0.846

Q: And the relative viability ([8]; first compound 0.1 µM)?
A: 0.879

Q: And the relative viability ([8]; first compound 0.3162 µM)?
A: 0.773

Q: And the relative viability ([8]; first compound 1 µM)?
A: 0.764

Q: And the relative viability ([9]; first compound 0.01 µM)?
A: 0.805

Q: And the relative viability ([9]; first compound 0.03162 µM)?
A: 0.661

Q: What about the relative viability ([9]; first compound 0.1 µM) of the same compound?
A: 0.739

Q: What about the relative viability ([9]; first compound 0.3162 µM) of the same compound?
A: 0.584

Q: What about the relative viability ([9]; first compound 1 µM) of the same compound?
A: 0.76

Q: What about the relative viability ([10]; first compound 0.01 µM) of the same compound?
A: 1.26

Q: And the relative viability ([10]; first compound 0.03162 µM)?
A: 0.654

Q: What about the relative viability ([10]; first compound 0.1 µM) of the same compound?
A: 0.983

Q: What about the relative viability ([10]; first compound 0.3162 µM) of the same compound?
A: 1.06

Q: What about the relative viability ([10]; first compound 1 µM) of the same compound?
A: 1.11

Q: And the relative viability ([11]; first compound 0.01 µM)?
A: 0.647

Q: And the relative viability ([11]; first compound 0.03162 µM)?
A: 0.574

Q: What about the relative viability ([11]; first compound 0.1 µM) of the same compound?
A: 0.577

Q: What about the relative viability ([11]; first compound 0.3162 µM) of the same compound?
A: 0.535

Q: What about the relative viability ([11]; first compound 1 µM) of the same compound?
A: 0.573

Q: And the relative viability ([12]; first compound 0.01 µM)?
A: 0.69

Q: What about the relative viability ([12]; first compound 0.03162 µM) of the same compound?
A: 0.648

Q: What about the relative viability ([12]; first compound 0.1 µM) of the same compound?
A: 0.592

Q: What about the relative viability ([12]; first compound 0.3162 µM) of the same compound?
A: 0.631

Q: What about the relative viability ([12]; first compound 1 µM) of the same compound?
A: 0.565

Q: What about the relative viability ([13]; first compound 0.01 µM) of the same compound?
A: 0.574

Q: And the relative viability ([13]; first compound 0.03162 µM)?
A: 0.589

Q: And the relative viability ([13]; first compound 0.1 µM)?
A: 0.663

Q: And the relative viability ([13]; first compound 0.3162 µM)?
A: 0.616

Q: What about the relative viability ([13]; first compound 1 µM) of the same compound?
A: 0.586

Q: What about the relative viability ([14]; first compound 0.01 µM) of the same compound?
A: 1.06

Q: What about the relative viability ([14]; first compound 0.03162 µM) of the same compound?
A: 0.931

Q: And the relative viability ([14]; first compound 0.1 µM)?
A: 0.931

Q: What about the relative viability ([14]; first compound 0.3162 µM) of the same compound?
A: 0.945

Q: What about the relative viability ([14]; first compound 1 µM) of the same compound?
A: 1.04

Q: What about the relative viability ([15]; first compound 0.01 µM) of the same compound?
A: 0.941

Q: What about the relative viability ([15]; first compound 0.03162 µM) of the same compound?
A: 0.89

Q: What about the relative viability ([15]; first compound 0.1 µM) of the same compound?
A: 0.879

Q: What about the relative viability ([15]; first compound 0.3162 µM) of the same compound?
A: 0.841

Q: And the relative viability ([15]; first compound 1 µM)?
A: 0.889

Q: And the relative viability ([16]; first compound 0.01 µM)?
A: 0.906

Q: And the relative viability ([16]; first compound 0.03162 µM)?
A: 0.82

Q: And the relative viability ([16]; first compound 0.1 µM)?
A: 0.85

Q: What about the relative viability ([16]; first compound 0.3162 µM) of the same compound?
A: 0.843

Q: And the relative viability ([16]; first compound 1 µM)?
A: 0.795

Q: And the relative viability ([17]; first compound 0.01 µM)?
A: 0.878

Q: What about the relative viability ([17]; first compound 0.03162 µM) of the same compound?
A: 0.92

Q: What about the relative viability ([17]; first compound 0.1 µM) of the same compound?
A: 0.948

Q: And the relative viability ([17]; first compound 0.3162 µM)?
A: 0.853

Q: And the relative viability ([17]; first compound 1 µM)?
A: 0.859

Q: And the relative viability ([18]; first compound 0.01 µM)?
A: 0.62

Q: And the relative viability ([18]; first compound 0.03162 µM)?
A: 0.732

Q: And the relative viability ([18]; first compound 0.1 µM)?
A: 0.819

Q: What about the relative viability ([18]; first compound 0.3162 µM) of the same compound?
A: 0.638

Q: And the relative viability ([18]; first compound 1 µM)?
A: 0.597

Q: And the relative viability ([19]; first compound 0.01 µM)?
A: 0.858

Q: What about the relative viability ([19]; first compound 0.03162 µM) of the same compound?
A: 0.93

Q: And the relative viability ([19]; first compound 0.1 µM)?
A: 0.928

Q: What about the relative viability ([19]; first compound 0.3162 µM) of the same compound?
A: 0.862

Q: And the relative viability ([19]; first compound 1 µM)?
A: 0.943

Q: And the relative viability ([20]; first compound 0.01 µM)?
A: 0.787

Q: And the relative viability ([20]; first compound 0.03162 µM)?
A: 0.805

Q: And the relative viability ([20]; first compound 0.1 µM)?
A: 0.808

Q: And the relative viability ([20]; first compound 0.3162 µM)?
A: 0.74

Q: What about the relative viability ([20]; first compound 1 µM) of the same compound?
A: 0.752

Q: What about the relative viability ([21]; first compound 0.01 µM) of the same compound?
A: 1.04

Q: And the relative viability ([21]; first compound 0.03162 µM)?
A: 1.01

Q: And the relative viability ([21]; first compound 0.1 µM)?
A: 1.01

Q: What about the relative viability ([21]; first compound 0.3162 µM) of the same compound?
A: 0.944

Q: And the relative viability ([21]; first compound 1 µM)?
A: 0.955

Q: What about the relative viability ([22]; first compound 0.01 µM) of the same compound?
A: 0.996

Q: What about the relative viability ([22]; first compound 0.03162 µM) of the same compound?
A: 1.05

Q: And the relative viability ([22]; first compound 0.1 µM)?
A: 1.26

Q: What about the relative viability ([22]; first compound 0.3162 µM) of the same compound?
A: 1.13

Q: What about the relative viability ([22]; first compound 1 µM) of the same compound?
A: 0.988

Q: What about the relative viability ([23]; first compound 0.01 µM) of the same compound?
A: 0.909

Q: And the relative viability ([23]; first compound 0.03162 µM)?
A: 1.07

Q: What about the relative viability ([23]; first compound 0.3162 µM) of the same compound?
A: 0.937

Q: What about the relative viability ([23]; first compound 1 µM) of the same compound?
A: 0.896

— the supplement of paper PMC10307832
